Experimental data published in patent US20240366560A1, “SMALL MOLECULE TREATMENT OF FATTY LIVER DISEASE AND HCC” (ScandiEdge Therapeutics AB, priority 2021, published 2024).

What was measured:
PKLR [1] = assay: PKLR protein level by western blot in steatosis-induced HepG2, 7-day drug treatment; assay type: cell-based; conditions: steatosis-induced HepG2, 7 days of drug treatment, P<0.05, FIG. 2B
Description: (§1) WT HepG2 was included in this study and cultured by Roswell Park Memorial Institute (RPMI, R2405, Sigma Aldrich) 1640 Medium with 10% fetal bovine serum (FBS) and 1% penicillin-streptomycin (PS). To induce a steatosis model into WT HepG2 cells, high glucose Dulbecco's Modified Eagle Media (DMEM, D0822/D5671, Sigma-Aldrich) containing 10% FBS and 1% PS was used as medium for one week, together with 10 μg/mL insulin and 10 μM T0901317. All of cells were incubated in the incubator with 5% CO2 and 37° C. (Thermo SCIENTIFIC). Fresh medium was provided every two days.
(§2) As for drug-screening, different numbers of HepG2 cells were seeded for distinct experiments. More in details, 40,000 cells and 500,000 cells were used for 2-day-drug treatment in 96-well-plate and 6-well plate, respectively, while 80,000 cells and 300,000 cells were used for one-week drug treatment in 96-well plate and 6-well plate, respectively. Detailed drug dosages could be found in FIG. 5. Fresh medium was provided every two days.
(§3) Protein content levels were detected by western blot. After the respective treatment of drugs, the cell pellets were lysed in cell lytic M, followed by protein extraction from supernatant (10 min, 13,000r/min centrifuge). Extracted cell lysate was stored in −20° C. Proteins were quantified through Bovine albumin serum (BAS) standard curve with protein assay dye reagent (BIO-RAD). The proteins were separated by SDS-PAGE with 100v in 90 min by mini-protein TGX precast gels (4-15%, 15 wells, 15 μl/well, BIO-RAD), and then transfer to Mini PVDF transfer package through transfer system (Transfer-Turbo, BIO-RAD). After 30 min blocking with 5% skim milk in cold room (4° C.) and washing with TBST, membrane was cut by the size of interested proteins. Primary antibodies were added into the corresponding membrane sections for overnight binding. Then the membranes were washed with TBST, and the secondary antibodies were incubated for 1 h in cold room. The following antibody were used: (Goat pAb to Rb lg, ab205718, abcam; Rb pAb to beta-actin, ab8227, abcam; anti-pklr, HPA006653, SIGMA; Rb pAb to fatty acid synthase, ab99539, abcam). The bindings were imaged by immunostaining and machine (ImageQuant LAS 500). All antibodies were purchased from Abcam online, and βactin was used as global normalized protein. After measurement, the strength of signal for each protein was quantified by ImageJ. The background noise was removed, and all results were normalized by the levels of β-actin.
(§4) To further analyse the effect of these drugs on lipid accumulation via the DNL pathway, steatosis was induced to HepG2 by treating the cells with high glucose medium (DMEM), insulin and T0901317 (Hansmannel et al., 2006). […] Therefore, the effects of these two drugs on the de novo synthesis of lipids were investigated based on the steatosis-induced HepG2 model. […] Taken together, it was shown that BX-912 and JNK-IN-5A effectively alleviate the protein expression of PKLR and FASN as well as TG levels in HepG2 cell lines, and thus, it was decided to perform in vivo evaluations to test the effect of these two drugs.

FASN [2] = assay: FASN protein level by western blot in steatosis-induced HepG2, 7-day drug treatment; assay type: cell-based; conditions: steatosis-induced HepG2, 7 days of drug treatment, P<0.05, FIG. 2C
Description: as §1, §2, §3, §4

PKLR [3] = assay: PKLR protein level by western blot in HepG2, 2-day drug treatment; assay type: cell-based; conditions: HepG2, two days of treatment, dosages per FIG. 5, P<0.05, FIG. 2A
Description: WT HepG2 was included in this study and cultured by Roswell Park Memorial Institute (RPMI, […], Sigma Aldrich) 1640 Medium with 10% fetal bovine serum (FBS) and 1% penicillin-streptomycin (PS). To induce a steatosis model into WT HepG2 cells, high glucose Dulbecco's Modified Eagle Media (DMEM, […]/[…], Sigma-Aldrich) containing 10% FBS and 1% PS was used as medium for one week, together with 10 μg/mL insulin and 10 μM T0901317. All of cells were incubated in the incubator with 5% CO2 and 37° C. (Thermo […]). Fresh medium was provided every two days. As for drug-screening, different numbers of HepG2 cells were seeded for distinct experiments. More in details, 40,000 cells and 500,000 cells were used for 2-day-drug treatment in 96-well-plate and 6-well plate, respectively, while 80,000 cells and 300,000 cells were used for one-week drug treatment in 96-well plate and 6-well plate, respectively. […] Fresh medium was provided every two days. Protein content levels were detected by western blot. After the respective treatment of drugs, the cell pellets were lysed in cell lytic M, followed by protein extraction from supernatant (10 min, 13,000r/min centrifuge). Extracted cell lysate was stored in -20° C. Proteins were quantified through Bovine albumin serum (BAS) standard curve with protein assay dye reagent (BIO-RAD). The proteins were separated by SDS-PAGE with 100v in 90 min by mini-protein TGX precast gels (4-15%, 15 wells, 15 μl/well, BIO-RAD), and then transfer to Mini PVDF transfer package through transfer system (Transfer-Turbo, BIO-RAD). After 30 min blocking with 5% skim milk in cold room (4° C.) and washing with TBST, membrane was cut by the size of interested proteins. Primary antibodies were added into the corresponding membrane sections for overnight binding. Then the membranes were washed with TBST, and the secondary antibodies were incubated for 1 h in cold room. The following antibody were used: (Goat pAb to Rb lg, ab205718, abcam; Rb pAb to beta-actin, ab8227, abcam; […]; Rb pAb to fatty acid synthase, ab99539, abcam). The bindings were imaged by immunostaining and machine (ImageQuant LAS 500). All antibodies were purchased from Abcam online, and βactin was used as global normalized protein. After measurement, the strength of signal for each protein was quantified by ImageJ. The background noise was removed, and all results were normalized by the levels of β-actin. To determine the inhibitory effects of these drugs on the expression level of PKLR, HepG2 was selected as the in vitro model for coherence. […] HepG2 cells were treated with these drugs for two days with different dosages due to their potential cellular toxicities (FIG. 5), and the PKLR protein level was the measured by western blotting. The level of protein expression of PKLR of the drug-treated groups was compared to that of the Ctrl group after normalizing with β-actin.

[4] = test system: genes controlling fatty acid biosynthesis and Pcsk9; conditions: in vitro (Poirier et al., 2014); cited from earlier work
FASN [5] = conditions: high-glucose-cultured HepG2 cell model (Hosseini et al., 2020); cited from earlier work

CC(C)(C)c1nc(-c2cccc(NS(=O)(=O)c3c(F)cccc3F)c2F)c(-c2ccnc(N)n2)s1 [Dabrafenib]
protein expression level of PKLR (PKLR [1]): significantly decreased | protein expression level of FASN (FASN [2]): significantly reduced

CCCS(=O)(=O)Nc1ccc(F)c(C(=O)c2c[nH]c3ncc(Cl)cc23)c1F [PLX-4720]
protein expression of PKLR vs Ctrl, normalized with β-actin (PKLR [3]): significantly down-regulated | protein expression level of PKLR (PKLR [1]): significantly decreased | protein expression level of FASN (FASN [2]): significantly reduced

O=C(NC(NC(=S)Nc1ccc(F)c([N+](=O)[O-])c1)C(Cl)(Cl)Cl)C(c1ccccc1)c1ccccc1 (stereo not drawn) [CGK-733]
protein expression of PKLR vs Ctrl, normalized with β-actin (PKLR [3]): significantly down-regulated

N#CC(c1ccnc(NCCc2cccnc2)n1)c1nc2ccccc2s1 (stereo not drawn) [AS-601245]
protein expression of PKLR vs Ctrl, normalized with β-actin (PKLR [3]): significantly down-regulated | protein expression level of PKLR (PKLR [1]): significantly decreased

Nc1ncn([C@@H]2O[C@H](CO)[C@@H](O)[C@H]2O)c(=O)n1 [Azacitidine]
protein expression of PKLR vs Ctrl, normalized with β-actin (PKLR [3]): significantly down-regulated | protein expression level of PKLR (PKLR [1]): significantly decreased | protein expression level of FASN (FASN [2]): significantly reduced | expression level of a list of genes controlling fatty acid biosynthesis and Pcsk9 [4]: reduces | expression level of Fasn (FASN [5]): decreases

PF-477736
protein expression level of PKLR (PKLR [1]): significantly decreased | protein expression level of FASN (FASN [2]): significantly reduced
